Legend:
broad-leaved weeds [1] = test: Pre-emergence test (Example A); type: in vivo; details: soil watered with preparation 24 hours after sowing, rated after three weeks vs untreated control (0%=no action, 100%=total destruction)
Procedure: Solvent: 5 parts by weight of acetone
Emulsifier: 1 part by weight of alkylaryl polyglycol ether
(§1) To produce a suitable preparation of active compound, 1 part by weight of active compound is mixed with the stated amount of solvent, the stated amount of emulsifier is added and the concentrate is diluted with water to the desired concentration.
Seeds of the test plants are sown in normal soil, and, after 24 hours, the soil is watered with the preparation of the active compound. It is expedient to keep constant the amount of water per unit area. The concentration of the active compound in the preparation is of no importance, only the amount of active compound applied per unit area being decisive.
After three weeks, the degree of damage to the plants is rated in % damage in comparison to the development of the untreated control. The figures denote:
(§2) 0%=no action (like untreated control) 100%=total destruction

broad-leaved weeds [2] = test: Post-emergence test (Example B); type: in vivo; details: test plants of 5-15 cm height sprayed, 2,000 l water/ha, rated after three weeks vs untreated control (0%=no action, 100%=total destruction)
Procedure: as §1
Test plants which have a height of 5-15 cm are sprayed with the preparation of the active compound in such a way as to apply the particular amounts of active compound desired per unit area. The concentration of the spray liquor is chosen so that the particular amounts of active compound desired are applied in 2,000 1 of water/ha. After three weeks, the degree of damage to the plants is rated in % damage in comparison to the development of the untreated control.
as §2

| melting point | Structure (SMILES) | action against broad-leaved weeds (degree of damage to the plants) (broad-leaved weeds [1]) | action against broad-leaved weeds (degree of damage to the plants) (broad-leaved weeds [2]) |
| --- | --- | --- | --- |
| – | CCOc1nn(C(=O)NS(=O)(=O)c2c(C)cccc2OC(C)C)c(=O)n1C [Example 1, 5-ethoxy-4-methyl-2-(2-isopropoxy-6-methyl-phenylsulphonyl-aminocarbonyl)-2,4-dihydro-3H-1,2,4-triazol-3-one] | very strong action | very strong action |
| 162 °C | CCOc1cccc(C)c1S(=O)(=O)NC(=O)n1nc(OCC)n(C)c1=O [Example 9, 5-ethoxy-4-methyl-2-(2-ethoxy-6-methyl-phenylsulphonylaminocarbonyl)-2,4-dihydro-3H-1,2,4-triazol-3-one] | – | – |

— US6525211B1, “Herbicidal sulphonylamino(thio)carbonyl compounds” (Bayer Aktiengesellschaft, priority 1995, dated 2003)
